Laboratory results as given in PubChem BioAssay (NCI).
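1) Cells in 96-well plates. 2) Compound, 48 h, 5 concentrations. 3) Linear interpolation between surrounding doses. 4) Unreached endpoint = highest concentration. Here, GI50 denotes the concentration required for 50% inhibition of growth. TGI denotes the concentration required for complete inhibition of growth.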

Experiments:
Experiment in all cases: growth of human tumour cells (NCI), 48 h; in the data active = GI50 below about 0.43 µM; inactive = the rest
HL-60(TB) leukemia = tested on: HL-60(TB) leukemia
MOLT-4 leukemia = tested on: MOLT-4 leukemia
OVCAR-8 ovarian = tested on: OVCAR-8 ovarian
HCT-15 colon = tested on: HCT-15 colon
SF-268 CNS = tested on: SF-268 CNS
EKVX NSCLC = tested on: EKVX NSCLC
ACHN renal = tested on: ACHN renal
A549 NSCLC = tested on: A549 NSCLC
RXF 393 renal = tested on: RXF 393 renal

Cc1cc(N(CCC#N)CCC#N)ccc1/C=C1\N=C(c2cc([N+](=O)[O-])ccc2Cl)N(c2cccc(Cl)c2)C1=O
> 100 µM: TGI (HL-60(TB) leukemia) | TGI (MOLT-4 leukemia) | TGI (OVCAR-8 ovarian) | TGI (HCT-15 colon) | TGI (SF-268 CNS) | TGI (EKVX NSCLC) | TGI (ACHN renal) | TGI (A549 NSCLC)

CC(C)(CO)N1CCN(C(=S)Nc2ccccc2)CC1
> 100 µM: TGI (OVCAR-8 ovarian) | TGI (HCT-15 colon) | TGI (SF-268 CNS) | TGI (RXF 393 renal) | TGI (EKVX NSCLC) | TGI (ACHN renal) | TGI (A549 NSCLC)

CC(C)(C)c1cc(CCC(=O)Nc2ccc(Cl)cc2)nc(NC#N)n1
> 100 µM: TGI (HL-60(TB) leukemia) | TGI (MOLT-4 leukemia) | TGI (OVCAR-8 ovarian) | TGI (HCT-15 colon) | TGI (SF-268 CNS) | TGI (EKVX NSCLC) | TGI (ACHN renal) | TGI (A549 NSCLC)

COCCCNC(=O)C1C(=O)C(=O)N(CCCOC)C1=O (stereo unspecified)
> 100 µM: TGI (HL-60(TB) leukemia) | TGI (MOLT-4 leukemia) | TGI (OVCAR-8 ovarian) | TGI (HCT-15 colon) | TGI (SF-268 CNS) | TGI (EKVX NSCLC) | TGI (ACHN renal) | TGI (A549 NSCLC)

O=C(CCN(C(=O)O)S(=O)(=O)c1ccc(NC(=O)c2ccccc2)cc1)NC1CCCCC1
45.9 µM: TGI (MOLT-4 leukemia)
94.6 µM: TGI (HL-60(TB) leukemia)
> 100 µM: TGI (OVCAR-8 ovarian) | TGI (HCT-15 colon) | TGI (SF-268 CNS) | TGI (EKVX NSCLC) | TGI (ACHN renal) | TGI (A549 NSCLC)

CCOC1Oc2ccc(C)cc2C(=O)/C1=C\Nc1ccc(C(N)=O)cc1 (stereo unspecified)
inactive: GI50 (MOLT-4 leukemia) 46.2 µM | GI50 (OVCAR-8 ovarian) 17.7 µM | GI50 (HCT-15 colon) 11.4 µM | GI50 (SF-268 CNS) 44 µM | GI50 (RXF 393 renal) 22.9 µM | GI50 (EKVX NSCLC) 25.8 µM | GI50 (ACHN renal) 14.9 µM | GI50 (A549 NSCLC) 33.3 µM
> 100 µM: TGI (MOLT-4 leukemia) | TGI (SF-268 CNS) | TGI (A549 NSCLC)
30.6 µM: TGI (HCT-15 colon)
49 µM: TGI (RXF 393 renal)
40.6 µM: TGI (ACHN renal)
69 µM: TGI (EKVX NSCLC)
40.3 µM: TGI (OVCAR-8 ovarian)

O=C(N/C(=C\c1cccc([N+](=O)[O-])c1)c1nc2ccc([N+](=O)[O-])cc2[nH]1)c1ccccc1
> 100 µM: TGI (OVCAR-8 ovarian) | TGI (HCT-15 colon) | TGI (SF-268 CNS) | TGI (RXF 393 renal) | TGI (EKVX NSCLC) | TGI (ACHN renal) | TGI (A549 NSCLC)
51.4 µM: TGI (MOLT-4 leukemia)

COc1ccc(NC(=O)CC(=O)N/N=C/c2ccc(N(CCC#N)S(C)(=O)=O)cc2)cc1
> 100 µM: TGI (MOLT-4 leukemia) | TGI (OVCAR-8 ovarian) | TGI (HCT-15 colon) | TGI (SF-268 CNS) | TGI (RXF 393 renal) | TGI (EKVX NSCLC) | TGI (ACHN renal) | TGI (A549 NSCLC)

CC[C@@]1(c2ccccc2)C2=C(CC(C)(C)CC2=O)Nc2[nH]ncc21
> 100 µM: TGI (MOLT-4 leukemia) | TGI (OVCAR-8 ovarian) | TGI (HCT-15 colon) | TGI (SF-268 CNS) | TGI (RXF 393 renal) | TGI (EKVX NSCLC) | TGI (ACHN renal) | TGI (A549 NSCLC)
inactive: GI50 (MOLT-4 leukemia) > 100 µM | GI50 (OVCAR-8 ovarian) > 100 µM | GI50 (HCT-15 colon) 89 µM | GI50 (SF-268 CNS) > 100 µM | GI50 (RXF 393 renal) > 100 µM | GI50 (EKVX NSCLC) > 100 µM | GI50 (ACHN renal) > 100 µM | GI50 (A549 NSCLC) > 100 µM

NC(=O)COC(=O)c1c(Cl)nc2sccn12
> 100 µM: TGI (MOLT-4 leukemia) | TGI (OVCAR-8 ovarian) | TGI (SF-268 CNS) | TGI (EKVX NSCLC) | TGI (ACHN renal) | TGI (A549 NSCLC)
> 55.1 µM: TGI (HCT-15 colon)
> 81.8 µM: TGI (HL-60(TB) leukemia)

Cc1cc2c(cc1Cl)SC1=NN(C)S(=O)N1S2(=O)=O (stereo unspecified)
inactive: GI50 (HL-60(TB) leukemia) > 100 µM | GI50 (MOLT-4 leukemia) > 100 µM | GI50 (OVCAR-8 ovarian) > 100 µM | GI50 (HCT-15 colon) > 100 µM | GI50 (SF-268 CNS) > 100 µM | GI50 (EKVX NSCLC) > 100 µM | GI50 (ACHN renal) > 100 µM | GI50 (A549 NSCLC) > 100 µM
> 100 µM: TGI (HL-60(TB) leukemia) | TGI (MOLT-4 leukemia) | TGI (OVCAR-8 ovarian) | TGI (HCT-15 colon) | TGI (SF-268 CNS) | TGI (EKVX NSCLC) | TGI (ACHN renal) | TGI (A549 NSCLC)

COc1ccc2c(c1)[n+](=O)c(C(=O)C/C(=N/OCCCc1ccccc1)C(=O)NC13CC4CC(CC(C4)C1)C3)c(C)n2[O-]
> 100 µM: TGI (HL-60(TB) leukemia) | TGI (MOLT-4 leukemia) | TGI (OVCAR-8 ovarian) | TGI (HCT-15 colon) | TGI (SF-268 CNS) | TGI (EKVX NSCLC) | TGI (ACHN renal) | TGI (A549 NSCLC)

NC12CC3CC(C1)CC(C(=O)O)(C3)C2
> 100 µM: TGI (HL-60(TB) leukemia) | TGI (MOLT-4 leukemia) | TGI (OVCAR-8 ovarian) | TGI (HCT-15 colon) | TGI (SF-268 CNS) | TGI (EKVX NSCLC) | TGI (ACHN renal) | TGI (A549 NSCLC)

O=C1c2ccccc2C(=O)N1CCc1ncc[nH]1
> 100 µM: TGI (MOLT-4 leukemia) | TGI (OVCAR-8 ovarian) | TGI (HCT-15 colon) | TGI (SF-268 CNS) | TGI (EKVX NSCLC) | TGI (ACHN renal) | TGI (A549 NSCLC)

Cc1ccc(NC(=O)CC(=O)n2nc(C)c(N=Nc3ccccc3C(=O)O)c2C)cc1
> 100 µM: TGI (HL-60(TB) leukemia) | TGI (MOLT-4 leukemia) | TGI (OVCAR-8 ovarian) | TGI (HCT-15 colon) | TGI (SF-268 CNS) | TGI (EKVX NSCLC) | TGI (A549 NSCLC)

CCOC(=O)/C(=C\c1ccccc1)C(=O)O
> 100 µM: TGI (HL-60(TB) leukemia) | TGI (MOLT-4 leukemia) | TGI (OVCAR-8 ovarian) | TGI (HCT-15 colon) | TGI (SF-268 CNS) | TGI (EKVX NSCLC) | TGI (ACHN renal) | TGI (A549 NSCLC)

O=C(CCc1cc(-c2ccccc2)nc(=S)[nH]1)N(Cc1ccccc1)Cc1ccccc1
> 100 µM: TGI (HL-60(TB) leukemia) | TGI (MOLT-4 leukemia) | TGI (OVCAR-8 ovarian) | TGI (HCT-15 colon) | TGI (SF-268 CNS) | TGI (EKVX NSCLC) | TGI (ACHN renal) | TGI (A549 NSCLC)

Nc1c(-c2ccc(Cl)cc2)[n+]([O-])c2ccccc2[n+]1[O-]
> 100 µM: TGI (HL-60(TB) leukemia) | TGI (MOLT-4 leukemia) | TGI (OVCAR-8 ovarian) | TGI (HCT-15 colon) | TGI (SF-268 CNS) | TGI (EKVX NSCLC) | TGI (ACHN renal) | TGI (A549 NSCLC)

N#C/C(=C\c1ccc2ccccc2c1)c1ccccc1
98.3 µM: TGI (ACHN renal)
> 100 µM: TGI (HCT-15 colon) | TGI (SF-268 CNS)
96.7 µM: TGI (OVCAR-8 ovarian)
94.5 µM: TGI (MOLT-4 leukemia)
65 µM: TGI (RXF 393 renal)
